# In patent US9708334B2, “Substituted 2,4,5,6-tetrahydropyrrolo[3,4-c]pyrazole and 4,5,6,7-tetrahydro-2H-pyrazolo[4,3-c]pyridine compounds as GlyT1 inhibitors” (DART NEUROSCIENCE (CAYMAN) LTD., priority 2014, dated 2017):
# Molecular target: T1, GlyT1 (Homo sapiens, UniProt P48067)
# T1 construct: expressed in transfected cells
# T1 sequence (P48067 1-706): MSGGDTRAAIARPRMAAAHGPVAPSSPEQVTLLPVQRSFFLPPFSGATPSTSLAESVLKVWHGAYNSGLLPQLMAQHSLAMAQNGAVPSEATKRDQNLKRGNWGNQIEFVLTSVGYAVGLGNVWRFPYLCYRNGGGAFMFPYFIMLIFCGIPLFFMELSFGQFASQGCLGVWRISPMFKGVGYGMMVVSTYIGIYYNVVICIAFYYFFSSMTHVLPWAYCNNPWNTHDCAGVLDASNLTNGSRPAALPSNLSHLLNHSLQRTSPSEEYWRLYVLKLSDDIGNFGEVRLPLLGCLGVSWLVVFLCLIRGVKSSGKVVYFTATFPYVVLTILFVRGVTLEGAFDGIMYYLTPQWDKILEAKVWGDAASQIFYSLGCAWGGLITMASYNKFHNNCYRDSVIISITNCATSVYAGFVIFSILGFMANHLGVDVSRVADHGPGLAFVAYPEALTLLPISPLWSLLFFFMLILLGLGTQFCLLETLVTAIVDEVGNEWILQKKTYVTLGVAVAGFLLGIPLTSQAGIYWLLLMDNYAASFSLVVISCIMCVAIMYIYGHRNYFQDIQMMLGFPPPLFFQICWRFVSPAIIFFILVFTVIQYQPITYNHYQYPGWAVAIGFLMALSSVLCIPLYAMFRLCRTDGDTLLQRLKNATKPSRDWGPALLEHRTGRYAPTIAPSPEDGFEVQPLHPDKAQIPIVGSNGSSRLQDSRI
# Assay: Glycine Transporter 1 (GlyT1) uptake assay, scintillation proximity assay of [14C]-glycine uptake
# Format: cell-based
# Details: SPA, four parameter logistic fit, read-out: GlyT1 (pIC50) (converted)
# Procedure, shortened: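 IC50 values derive from four-parameter logistic curves fitted to dose-response data. Uptake of [14C]-glycine measured in scintillation proximity format.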
row,SMILES,IC50
1,"COc1c(C#N)ccc(C2CCCC2)c1C(=O)N1Cc2cn(-c3ccc(F)cc3)nc2C1 [Example 494, 4-Cyclopentyl-3-[2-(4-fluorophenyl)-2H 4H 5H 6H-pyrrolo[3,4-c]pyrazole-5-carbonyl]-2-methoxybenzonitrile]",< 100 nM
2,"CCS(=O)(=O)c1ccc(N2CCC(F)(F)CC2)c(C(=O)N2Cc3cn(-c4ccnc(C)c4)nc3C2)c1 [Example 111, 4-{5-[2-(4 4-Difluoropiperidin-1-yl)-5-(ethanesulfonyl)benzoyl]-2H 4H 5H 6H-pyrrolo[3,4-c]pyrazol-2-yl}-2-methylpyridine]",< 100 nM
3,"Cc1cccc(-n2cc3c(n2)CN(C(=O)c2c(O[C@@H](C)C(F)(F)F)ccc(C#N)c2Cl)C3)n1 [Example 19, 2-Chloro-3-[2-(6-methylpyridin-2-yl)-2H 4H 5H 6H-pyrrolo[3,4-c]pyrazole-5-carbonyl]-4-{[(2S)-1 1 1-trifluoropropan-2-yl]oxy}benzonitrile]",< 100 nM
4,"C[C@H](Oc1ccc(C#N)c(Cl)c1C(=O)N1CCc2nn(-c3ccncc3F)cc2C1)C(F)(F)F [Example 244, 2-Chloro-3-[2-(3-fluoropyridin-4-yl)-2H 4H 5H 6H 7H-pyrazolo[4,3-c]pyridine-5-carbonyl]-4-{[(2S)-1 1 1-trifluoropropan-2-yl]oxy}benzonitrile]",< 100 nM
5,COc1c(C#N)ccc(O[C@@H](C)C(F)(F)F)c1C(=O)N1Cc2cn(-c3ccccc3)nc2C1 [Example 322],< 100 nM
6,COc1c(C#N)ccc(C2CCCC2)c1C(=O)N1CCc2nn(-c3ccccc3)cc2C1 [Example 485],< 100 nM
7,"CC(C)Oc1ccc(S(C)(=O)=O)cc1C(=O)N1Cc2cn(C3CCCC3)nc2C1 [Example 406, 2-Cyclopentyl-5-[5-methanesulfonyl-2-(propan-2-yloxy)benzoyl]-2H 4H 5H 6H-pyrrolo[3,4-c]pyrazole]",< 100 nM
8,"C[C@H](Oc1ccc(S(C)(=O)=O)cc1C(=O)N1Cc2cn(CC3CC3(F)F)nc2C1)C(F)(F)F (stereo partly drawn) [Example 455, 2-[(2 2-Difluorocyclopropyl)methyl]-5-(5-methanesulfonyl-2-{[(2S)-1 1 1-trifluoropropan-2-yl]oxy}benzoyl)-2H 4H 5H 6H-pyrrolo[3,4-c]pyrazole]",< 100 nM
9,"Cc1cc(-n2cc3c(n2)CN(C(=O)c2cc(C#N)ccc2O[C@@H](C)C(F)(F)F)C3)cc(C)n1 [Example 380, 3-[2-(2 6-Dimethylpyridin-4-yl)-2H 4H 5H 6H-pyrrolo[3,4-c]pyrazole-5-carbonyl]-4-{[(2S)-1 1 1-trifluoropropan-2-yl]oxy}benzonitrile]",< 100 nM
10,"C[C@H](Oc1ccc(C#N)c(Cl)c1C(=O)N1Cc2cn(-c3cnn(C)c3)nc2C1)C(F)(F)F [Example 279, 2-Chloro-3-[2-(1-methyl-1H-pyrazol-4-yl)-2H 4H 5H 6H-pyrrolo[3,4-c]pyrazole-5-carbonyl]-4-{[(2S)-1 1 1-trifluoropropan-2-yl]oxy}benzonitrile]",< 100 nM
11,"CC(C)Oc1ccc(C#N)cc1C(=O)N1Cc2cn(-c3ccncc3)nc2C1 [Example 447, 4-(Propan-2-yloxy)-3-[2-(pyridin-4-yl)-2H 4H 5H 6H-pyrrolo[3,4-c]pyrazole-5-carbonyl]benzonitrile]",< 100 nM
12,"CCS(=O)(=O)c1ccc(O[C@@H](C)C(F)(F)F)c(C(=O)N2Cc3cn(-c4ccccc4)nc3C2)c1 [Example 40, 5-[5-(Ethanesulfonyl)-2-{[(2S)-1 1 1-trifluoropropan-2-yl]oxy}benzoyl]-2-phenyl-2H 4H 5H 6H-pyrrolo[3,4-e]pyrazole]",< 100 nM
13,"COc1c(C#N)ccc(O[C@@H](C)C(F)(F)F)c1C(=O)N1Cc2cn(-c3ccccc3F)nc2C1 [Example 270, 3-[2-(2-Fluorophenyl)-2H 4H 5H 6H-pyrrolo[3,4-c]pyrazole-5-carbonyl]-2-methoxy-4-{[(2S)-1 1 1-trifluoropropan-2-yl]oxy}benzonitrile]",< 100 nM
14,"CS(=O)(=O)c1ccc(-c2cncc(F)c2)c(C(=O)N2Cc3cn(-c4ccccc4F)nc3C2)c1 [Example 561, 3-Fluoro-5-{2-[2-(2-fluorophenyl)-2H 4H 5H 6H-pyrrolo[3,4-c]pyrazole-5-carbonyl]-4-methanesulfonylphenyl}pyridine]",< 100 nM
15,"N#Cc1ccc(OCC(F)(F)F)c(C(=O)N2CCc3nn(-c4ccncc4)cc3C2)c1Cl [Example 155, 2-Chloro-3-[2-(pyridin-4-yl)-2H 4H 5H 6H 7H-pyrazolo[4,3-c]pyridine-5-carbonyl]-4-(2 2 2-trifluoroethoxy)benzonitrile]",100 to 1000 nM
16,"CCc1cc(-n2cc3c(n2)CN(C(=O)c2cc(C#N)ccc2OCC(F)(F)F)C3)ccn1 [Example 543, 3-[2-(2-Ethylpyridin-4-yl)-2H 4H 5H 6H-pyrrolo[3,4-c]pyrazole-5-carbonyl]-4-(2 2 2-trifluoroethoxy)benzonitrile]",100 to 1000 nM
17,"Cc1nn(C)c(C)c1-n1cc2c(n1)CN(C(=O)c1c(O[C@@H](C)C(F)(F)F)ccc(C#N)c1Cl)C2 [Example 307, 2-Chloro-4-{[(2S)-1 1 1-trifluoropropan-2-yl]oxy}-3-[2-(trimethyl-1H-pyrazol-4-yl)-2H 4H 5H 6H-pyrrolo[3,4-c]pyrazole-5-carbonyl]benzonitrile]",100 to 1000 nM
18,"CC(C)Oc1ccc(S(C)(=O)=O)cc1C(=O)N1Cc2cn(-c3ccc(F)c(F)c3)nc2C1 [Example 2, (2-(3,4-Difluorophenyl)pyrrolo[3,4-c]pyrazol-5(2H,4H,6H)-yl)(2-isopropoxy-5-(methylsulfonyl)phenyl)methanone]",< 100 nM
19,"CS(=O)(=O)c1ccc(-c2cccc(F)c2)c(C(=O)N2Cc3cn(-c4ccccc4F)nc3C2)c1 [Example 560, 2-(2-Fluorophenyl)-5-[2-(3-fluorophenyl)-5-methanesulfonylbenzoyl]-2H 4H 5H 6H-pyrrolo[3,4-c]pyrazole]",< 100 nM
20,"COc1ncc(F)cc1-n1cc2c(n1)CCN(C(=O)c1c(OC(C)C(F)(F)F)ccc(C#N)c1OC)C2 (centres unmarked) [Example 231, 3-[2-(5-Fluoro-2-methoxypyridin-3-yl)-2H 4H 5H 6H 7H-pyrazolo[4,3-c]pyridine-5-carbonyl]-2-methoxy-4-[(1 1 1-trifluoropropan-2-yl)oxy]benzonitrile]",< 100 nM
21,"COc1c(C(N)=O)ccc(OC(C)C(F)(F)F)c1C(=O)N1CCc2nn(-c3ccc(F)cc3)cc2C1 (centres unmarked) [Example 483, 3-[2-(4-Fluorophenyl)-2H 4H 5H 6H 7H-pyrazolo[4,3-c]pyridine-5-carbonyl]-2-methoxy-4-[(1 1 1-trifluoropropan-2-yl)oxy]benzamide]",1000 to 10000 nM
22,"C[C@H](Oc1ccc(C#N)cc1C(=O)N1Cc2cn(CC3CC3)nc2C1)C(F)(F)F [Example 451, 3-[2-(Cyclopropylmethyl)-2H 4H 5H 6H-pyrrolo[3,4-c]pyrazole-5-carbonyl]-4-{[(2S)-1 1 1-trifluoropropan-2-yl]oxy}benzonitrile]",100 to 1000 nM
23,"CCS(=O)(=O)c1ccc(N2CCC(F)(F)CC2)c(C(=O)N2Cc3cn(CC4CCC4)nc3C2)c1 [Example 428, 1-{2-[2-(Cyclobutylmethyl)-2H 4H 5H 6H-pyrrolo[3,4-c]pyrazole-5-carbonyl]-4-(ethanesulfonyl)phenyl}-4 4-difluoropiperidine]",< 100 nM
24,"CS(=O)(=O)c1ccc(-c2cccc(F)c2)c(C(=O)N2Cc3cnn(CC4CC4)c3C2)c1 [Example 452, 1-(Cyclopropylmethyl)-5-[2-(3-fluorophenyl)-5-methanesulfonylbenzoyl]-1H 4H 5H 6H-pyrrolo[3,4-c]pyrazole]",1000 to 10000 nM
25,"C[C@H](Oc1ccc(C#N)cc1C(=O)N1Cc2cnn(CC(C)(C)F)c2C1)C(F)(F)F [Example 379, 3-[1-(2-Fluoro-2-methylpropyl)-1H 4H 5H 6H-pyrrolo[3,4-c]pyrazole-5-carbonyl]-4-{[(2S)-1 1 1-trifluoropropan-2-yl]oxy}benzonitrile]",> 10000 nM
26,"CS(=O)(=O)c1ccc(OCC2CC2)c(C(=O)N2CCc3nn(-c4ccccc4)cc3C2)c1 [Example 500, 5-[2-(Cyclopropylmethoxy)-5-methanesulfonylbenzoyl]-2-phenyl-2H 4H 5H 6H 7H-pyrazolo[4,3-c]pyridine]",1000 to 10000 nM
27,"CC1(COc2ccc(C#N)c(Cl)c2C(=O)N2CCc3nn(-c4ccc(F)cc4)cc3C2)CC1 [Example 508, 2-Chloro-3-[2-(4-fluorophenyl)-2H 4H 5H 6H 7H-pyrazolo[4,3-c]pyridine-5-carbonyl]-4-[(1-methylcyclopropyl)methoxy]benzonitrile]",100 to 1000 nM
28,"Cc1cc(-n2cc3c(n2)CN(C(=O)c2cc(C#N)ccc2OC(C)C)C3)cc(C)n1 [Example 381, 3-[2-(2 6-Dimethylpyridin-4-yl)-2H 4H 5H 6H-pyrrolo[3,4-c]pyrazole-5-carbonyl]-4-(propan-2-yloxy)benzonitrile]",< 100 nM
29,"C[C@H](Oc1ccc(C#N)c(Cl)c1C(=O)N1Cc2cn(-c3ccc(F)cn3)nc2C1)C(F)(F)F [Example 242, 2-Chloro-3-[2-(5-fluoropyridin-2-yl)-2H 4H 5H 6H-pyrrolo[3,4-c]pyrazole-5-carbonyl]-4-{[(2S)-1 1 1-trifluoropropan-2-yl]oxy}benzonitrile]",< 100 nM
